Results published in PubChem BioAssay AID248 (DTP/NCI, 2004).
Several values for one entry are separate records, joined by “and”; a condition that tells them apart may be missing. Identical values can stand only once. Toxic doses and inconclusive results are not listed. Cut-off read from the data, not from the text of the source: active = T/C of 150% or more; inactive = T/C below 125%.

Test system: L1210 leukemia ip in BDF1 mice, survival T/C
Assay: NCI In Vivo Anticancer Drug Screen. Data for tumor model L1210 Leukemia (intraperitoneal) in B6D2F1 (BDF1) mice
Conditions: endpoint: mean survival time, higher = longer survival
Outline: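 Read-out is survival time, reported as the treated-group measurement over the vehicle-control measurement.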

[1] = dose: 100.0 mg/kg/injection, schedule: Q01DX001 (ip), vehicle: saline with Tween-80
[2] = dose: 100.0 mg/kg/injection, schedule: Q01DX009 (ip), vehicle: saline with Tween-80
[3] = dose: 100.0 mg/kg/injection, schedule: Q04DX002 (ip), vehicle: saline with Tween-80
[4] = dose: 200.0 mg/kg/injection, schedule: Q01DX001 (ip), vehicle: saline with Tween-80
[5] = dose: 200.0 mg/kg/injection, schedule: Q01DX009 (ip), vehicle: saline with Tween-80
[6] = dose: 200.0 mg/kg/injection, schedule: Q04DX002 (ip), vehicle: saline with Tween-80
[7] = dose: 400.0 mg/kg/injection, schedule: Q01DX001 (ip), vehicle: saline with Tween-80
[8] = dose: 400.0 mg/kg/injection, schedule: Q04DX002 (ip), vehicle: saline with Tween-80
[9] = dose: 100.0 mg/kg/injection, schedule: Q01DX001 (ip), vehicle: saline
[10] = dose: 200.0 mg/kg/injection, schedule: Q01DX001 (ip), vehicle: saline
[11] = dose: 400.0 mg/kg/injection, schedule: Q01DX001 (ip), vehicle: saline
[12] = dose: 50.0 mg/kg/injection, schedule: Q01DX009 (ip), vehicle: saline with Tween-80
[13] = dose: 100.0 mg/kg/injection, schedule: Q01DX009 (ip), vehicle: Klucel (hydroxypropylcellulose) (HPC)
[14] = dose: 100.0 mg/kg/injection, schedule: Q04DX003 (ip), vehicle: Klucel (hydroxypropylcellulose) (HPC)
[15] = dose: 200.0 mg/kg/injection, schedule: Q01DX009 (ip), vehicle: Klucel (hydroxypropylcellulose) (HPC)
[16] = dose: 200.0 mg/kg/injection, schedule: Q04DX003 (ip), vehicle: Klucel (hydroxypropylcellulose) (HPC)
[17] = dose: 400.0 mg/kg/injection, schedule: Q04DX003 (ip), vehicle: Klucel (hydroxypropylcellulose) (HPC)
[18] = dose: 400.0 mg/kg/injection, schedule: Q01DX009 (ip), vehicle: Klucel (hydroxypropylcellulose) (HPC)

Measured: T/C

COc1cccc(C(O)c2cnc(C)n2Cc2ccccc2)c1 (configuration not stated)
inactive: [1] 94 % of control | [2] 93 % of control and 107 % of control | [3] 97 % of control and 100 % of control | dose: 100.0 mg/kg/injection, schedule: Q04DX003 (ip), vehicle: saline with Tween-80 101 % of control | [4] 100 % of control | [5] 98 % of control and 99 % of control | [6] 102 % of control and 107 % of control | dose: 200.0 mg/kg/injection, schedule: Q04DX003 (ip), vehicle: saline with Tween-80 93 % of control | [7] 103 % of control | dose: 400.0 mg/kg/injection, schedule: Q01DX009 (ip), vehicle: saline with Tween-80 98 % of control and 108 % of control | [8] 105 % of control and 88 % of control | dose: 400.0 mg/kg/injection, schedule: Q04DX003 (ip), vehicle: saline with Tween-80 98 % of control

CC(=O)NC1CCC(=O)C=C1c1ccccc1 (configuration not stated)
inactive: [9] 96 % of control | [10] 107 % of control | [11] 94 % of control

CC(=O)c1ccc(Br)cc1OCC(=O)O
inactive: dose: 100.0 mg/kg/injection, schedule: Q01DX009 (ip), vehicle: gum acacia 102 % of control | dose: 100.0 mg/kg/injection, schedule: Q04DX003 (ip), vehicle: gum acacia 97 % of control | dose: 200.0 mg/kg/injection, schedule: Q01DX009 (ip), vehicle: gum acacia 103 % of control | dose: 200.0 mg/kg/injection, schedule: Q04DX003 (ip), vehicle: gum acacia 92 % of control | dose: 400.0 mg/kg/injection, schedule: Q04DX003 (ip), vehicle: gum acacia 94 % of control

O=C(N/N=C/c1cccc([N+](=O)[O-])c1)c1ccc(Cl)c(Cl)c1
inactive: [12] 93 % of control | [2] 93 % of control | [5] 90 % of control

Nc1nc(-c2ccccc2)cc(-c2ccccc2)c1-c1ccccc1
inactive: [12] 108 % of control | [2] 112 % of control | [5] 104 % of control

C/C(=N/N(C)C)c1ccc(C)cc1
inactive: [9] 93 % of control | dose: 100.0 mg/kg/injection, schedule: Q01DX009 (ip), vehicle: saline 91 % of control | [10] 97 % of control | [11] 105 % of control

COCCc1nnn(C)n1
inactive: dose: 100.0 mg/kg/injection, schedule: Q04DX002 (ip), vehicle: saline 97 % of control | dose: 200.0 mg/kg/injection, schedule: Q04DX002 (ip), vehicle: saline 97 % of control | dose: 400.0 mg/kg/injection, schedule: Q04DX002 (ip), vehicle: saline 108 % of control

COc1nc(N)nc2nc(N)c(-c3ccc(N(CCO)CCO)cc3)nc12
inactive: [9] 95 % of control | [10] 96 % of control | [11] 95 % of control

CC(=O)[O][Hg][c]1c(C)c(C)cc(C)c1C
inactive: dose: 6.25 mg/kg/injection, schedule: Q04DX003 (ip), vehicle: saline with Tween-80 93 % of control | dose: 12.5 mg/kg/injection, schedule: Q04DX003 (ip), vehicle: saline with Tween-80 87 % of control | dose: 25.0 mg/kg/injection, schedule: Q04DX003 (ip), vehicle: saline with Tween-80 95 % of control

CCOC(=O)NN1C(=O)c2cccc3c([N+](=O)[O-])ccc(c23)C1=O
inactive: dose: 12.5 mg/kg/injection, schedule: Q01DX009 (ip), vehicle: Klucel (hydroxypropylcellulose) (HPC) 105 % of control | dose: 25.0 mg/kg/injection, schedule: Q01DX009 (ip), vehicle: Klucel (hydroxypropylcellulose) (HPC) 94 % of control | dose: 50.0 mg/kg/injection, schedule: Q01DX009 (ip), vehicle: Klucel (hydroxypropylcellulose) (HPC) 96 % of control

NC(N)=N/N=C/c1cccc2ccccc12
inactive: dose: 3.8 mg/kg/injection, schedule: Q01DX Z (ip), vehicle: other 102 % of control | dose: 6.25 mg/kg/injection, schedule: Q01DX009 (ip), vehicle: saline 95 % of control | dose: 6.25 mg/kg/injection, schedule: Q04DX003 (ip), vehicle: Klucel (hydroxypropylcellulose) (HPC) 104 % of control | dose: 7.5 mg/kg/injection, schedule: Q01DX Z (ip), vehicle: other 97 % of control | dose: 12.5 mg/kg/injection, schedule: Q01DX009 (ip), vehicle: saline 98 % of control | dose: 12.5 mg/kg/injection, schedule: Q04DX003 (ip), vehicle: Klucel (hydroxypropylcellulose) (HPC) 100 % of control | dose: 15.0 mg/kg/injection, schedule: Q01DX Z (ip), vehicle: other 105 % of control | dose: 25.0 mg/kg/injection, schedule: Q01DX009 (ip), vehicle: saline 88 % of control | dose: 25.0 mg/kg/injection, schedule: Q04DX003 (ip), vehicle: Klucel (hydroxypropylcellulose) (HPC) 104 % of control | dose: 30.0 mg/kg/injection, schedule: Q01DX Z (ip), vehicle: other 94 % of control

COc1ccc(NC(=S)NNC(=S)NNc2ccccc2)cc1
inactive: [13] 90 % of control | [14] 93 % of control | [15] 89 % of control | [16] 92 % of control | [17] 86 % of control

CC1(C)OC2C(N)OC(CO)C2O1 (configuration not stated)
inactive: dose: 100.0 mg/kg/injection, schedule: Q04DX003 (ip), vehicle: saline 95 % of control | dose: 200.0 mg/kg/injection, schedule: Q04DX003 (ip), vehicle: saline 110 % of control | dose: 400.0 mg/kg/injection, schedule: Q04DX003 (ip), vehicle: saline 104 % of control

CCNC(=S)NNC(=O)c1ccc(N=NN(C)C)cc1
inactive: [3] 100 % of control | [6] 94 % of control | [8] 100 % of control

Cc1cc(C)nc(NCCCC(N)C(=O)O)n1 (configuration not stated)
inactive: [3] 100 % of control | [6] 95 % of control | [8] 92 % of control

C1=Nc2cc3c(cc2Cn2cccc21)OCO3
inactive: dose: 25.0 mg/kg/injection, schedule: Q04DX002 (ip), vehicle: Klucel (hydroxypropylcellulose) (HPC) 86 % of control | dose: 50.0 mg/kg/injection, schedule: Q04DX002 (ip), vehicle: Klucel (hydroxypropylcellulose) (HPC) 94 % of control | dose: 100.0 mg/kg/injection, schedule: Q04DX002 (ip), vehicle: Klucel (hydroxypropylcellulose) (HPC) 94 % of control

Cc1cc2c(cc1C)[n+]([O-])c1c(=O)[nH]c(=O)nc-1n2CC(O)C(O)C(O)CO (configuration not stated)
inactive: [3] 98 % of control | [6] 95 % of control

COC(=O)N/N=C/C=C/c1ccccc1
inactive: dose: 25.0 mg/kg/injection, schedule: Q01DX009 (ip), vehicle: saline with Tween-80 101 % of control | [12] 105 % of control | [2] 97 % of control

CN(C)N1CCC2(CCC(C(C)(C)C)CC2)CC1
inactive: dose: 50.0 mg/kg/injection, schedule: Q01DX001 (ip), vehicle: carboxymethylcellulose (CMC) 101 % of control | dose: 100.0 mg/kg/injection, schedule: Q01DX001 (ip), vehicle: carboxymethylcellulose (CMC) 95 % of control

c1ccc(-c2cn3ccccc3n2)cc1
inactive: [1] 94 % of control | [14] 96 % of control | [4] 92 % of control | [16] 94 % of control | [7] 94 % of control | [17] 98 % of control

COc1ccccc1NS(=O)(=O)c1ccc(Cl)cc1
inactive: [13] 103 % of control | [15] 112 % of control | [18] 103 % of control

Cc1ccc(Cl)c(NC(=O)Nc2ccccc2F)c1
inactive: [13] 97 % of control | [15] 100 % of control | [18] 103 % of control

CCC/C=N/NC(=O)CCCCCCCCCCCCCCCCC
inactive: [13] 86 % of control | [15] 88 % of control | [18] 88 % of control

CC(C)(N)CNCC(C)(C)N
inactive: [9] 97 % of control | [10] 111 % of control

CCCCc1ccc(Nc2cc(=O)[nH]c(=O)[nH]2)cc1
inactive: dose: 25.0 mg/kg/injection, schedule: Q01DX001 (ip), vehicle: gum acacia 87 % of control | dose: 50.0 mg/kg/injection, schedule: Q01DX001 (ip), vehicle: gum acacia 87 % of control | dose: 200.0 mg/kg/injection, schedule: Q01DX001 (ip), vehicle: gum acacia 88 % of control | dose: 400.0 mg/kg/injection, schedule: Q01DX001 (ip), vehicle: gum acacia 88 % of control
